Source: patent publication US12521415B2, “Accelerating repair of mucosal injury using gold(III) compounds” (University of Kentucky Research Foundation, priority 2020, dated 2026)
“Also recorded” adds a separate entry of the source.

Assays:
[1] = Biodistribution and pharmacokinetics of AuPhos in tissues and stool after single oral dose; format: in vivo, mouse; conditions: single oral 25 mg/kg dose
Text: (§1) FIGS. 8A-8J present properties of AuPhos. FIG. 8A includes a chemical structure of AuPhos. FIG. 8B includes extrapolated AuPhos-induced OCR (complex I) in liver mitochondria. […] FIG. 8E provides weight change in AuPhos-treated mice over time. FIG. 8F presents stability of AuPhos in PBS and DMEM. FIG. 8G presents stability of AuPhos in PBS and DMEM. FIG. 8H includes an AuPhos-induced Heat map of DEG (left Panel), obtained using log 2(Fold Change) and p-Value <0.00001 thresholds in MDA-MB-231(107) cells (n=2), and the top six hits of KEGG analysis (right panel). FIG. 8I presents biodistribution and pharmacokinetics of AuPhos in different tissues; Colon, Small bowel, Lung, Kidney, Spleen, Liver, Heart and Blood after single dose (oral, 25 mg/kg) administration of AuPhos at 6 h, 12 h and 24 h. FIG. 8J presents biodistribution and pharmacokinetics of AuPhos in different tissues stool after single dose (oral, 25 mg/kg) administration of AuPhos at 6 h, 12 h and 24 h.
FIGS. 16A-16E illustrate the pharmacokinetics and effects of AuPhos on mitochondrial bioenergetics. FIG. 16A. Biodistribution and pharmacokinetics of AuPhos in different tissues; Colon, Small bowel, Spleen, Liver after a single intragastric (i.g.) gavage (25 mg/kg) with measurements of AuPhos tissue levels (graphite furnace atomic absorption spectroscopy) at times indicated. FIG. 16B. […]

[2] = system: isolated IEC; assay: Western blot of IEC proteins from control or DSS colitis mice gavaged with AuPhos; format: in vivo, mouse
Description: Control or DSS colitis mice were gavaged with vehicle (−) or AuPhos (+) (as in FIG. 2) and sacrificed on D14. WB of isolated IEC proteins indicated are shown in nuclear and membranous protein fractions along with densitometry. (#mice=4 for each condition). *p<0.04. FIG. 16E. Normal human colonic biopsies were incubated at 4° C. with AuPhos×3 hrs. Membranous and nuclear fractions examined for indicated proteins by WB.
Taking advantage of the unique electrochemical properties and excellent safety profile of gold in humans, a stable gold compound was designed to modulate mitochondrial processes including oxidative phosphorylation (OXPHOS). […] IEC (FIG. 16C). […] These examples illustrate that AuPhos has utility for “gut selective” IBD therapy.

[3] = system: colonic IEC; assay: High-resolution respirometry (OCR), mtDNA and mRNA of colonic IEC from AuPhos-fed mice; format: in vivo, mouse
Text: FIG. 10B includes high resolution respirometry results showing OCR in mitochondrial complexes of IECs from (A). […] FIG. 10D provides results of RT-qPCR analysis of genes associated with mitochondrial respiratory enzymes in AuPhos vs. control DSS mice. Stats—2-way ANOVA with Sidak's multiple comparison test. ★★<0.01, ★★★<0.0001.
FIGS. 16A-16E illustrate the pharmacokinetics and effects of AuPhos on mitochondrial bioenergetics. FIG. 16A. Biodistribution and pharmacokinetics of AuPhos in different tissues; Colon, Small bowel, Spleen, Liver after a single intragastric (i.g.) gavage (25 mg/kg) with measurements of AuPhos tissue levels (graphite furnace atomic absorption spectroscopy) at times indicated. FIG. 16B. Mitochondrial uptake of AuPhos by measuring gold content in mitochondrial fractions in normal colonocytes (NCM460). FIG. 16C. High-resolution respirometry showing OCR in mitochondrial complexes of freshly isolated IECs from AuPhos (25 mg/kg; q3D×3 doses)-fed mice compared to controls (vehicle only). Stats—2-way ANOVA with Sidak's multiple comparison test. ß<0.05, ßß<0.01. FIG. 16D.
Isolated IECs will be suspended in a mitochondria respiration medium and integrated respiration evaluated using Oxygraph-2K (Oroboros Instruments). Briefly, the capacity of electron transport system (ETS) will be evaluated by direct titration of protonophore, carbonyl cyanide p-(trifluoromethoxy) phenylhydrazone ([…]) after stabilization of routine respiration. After routine endogenous respiratory phase, cells will be permeabilized with digitonin and complex I (CI) substrates malate and pyruvate (5 mM, respectively).
(§2) OxPHOS will be then be stimulated by subsequent addition of ADP followed by additional CI substrate glutamate (5 mM). […] Residual non-mitochondrial oxygen consumption will be determined by addition of complex III inhibitor antimycin-A (1 ug/ml). Oxygen consumption rate (OCR) of isolated mitochondria will also be evaluated using Oxygraph-2K or high-throughput Seahorse XFe24 Extracellular Flux Analyzer (Agilent Technologies). […]

[4] = system: mouse liver mitochondria (complex I); assay: AuPhos-induced OCR in mouse liver mitochondria; format: biochemical; conditions: complex I-driven, substrates pyruvate and succinate
Text: as §1, §2

## [Cl][Au]1([c]2ccccc2Cc2ccccn2)[P](c2ccccc2)(c2ccccc2)c2ccccc2[P]1(c1ccccc1)c1ccccc1 [AuPhos]
[1]
  evacuation in the stool: ≤ 12 h
  tissue biodistribution: clear accumulation in the small and large bowel tissues
[2]; WB
  Nrf2 and PGC1α levels in IEC: increased Nrf2 and PGC1α levels
[2]; control and DSS colitis mice, sacrificed D14, WB
  mitochondrial complex levels in IEC: increases mitochondrial complex levels
[3]; 25 mg/kg q3D x3 doses, freshly isolated colonic IEC, OROBOROS 2K
  OCR in IEC in vivo: increased OCR in IEC in vivo from states II-V; also recorded: enhances mitochondrial respiration; also recorded: increased OCR (OxPHOS)
[3]; IEC from AuPhos-treated mice
  mtDNA (mtDNA/nucDNA ratio) in IEC: increased mtDNA; also recorded: higher mtDNA/nucDNA ratio
[3]; IEC from AuPhos-treated mice, RT-qPCR
  mRNA for mitochondrial CO1 and COX2: increased
[4]
  mitochondrial respiration (OCR): directly and rapidly enhances mitochondrial respiration; also recorded: significant increase in mitochondrial respiration induced by AuPhos in a dose-dependent manner
